# Source: US7935699B2, “Pyrazole glucokinase activators” (Hoffmann-La Roche Inc., priority 2006, dated 2011)
# Tests used:
# [1] = test system: Diet-Induced Obese (DIO) C57BL/6J mice; assay: Glucokinase activator in vivo screen, blood glucose in DIO mice; details: Mus musculus; 2 hours post 25 mg/kg oral dose in DIO mice, vs control; read-out: % gluc @ 2 H (% glucose lowering vs control)
# Method: Glucokinase Activator in vivo Screen Protocol in Lean and Diet Induced Obese Mice: Lean or Diet-Induced Obese (DIO) C57BL/6J mice were orally dosed via gavage with Glucokinase (GK) activator (50 mg/kg body weight for lean mice, 25 mg/kg body weight for DIO mice) following a two hour fasting period. Blood glucose determinations were made four times during the six hour post-dose study period.
# C57Bl/6J mice were obtained from Jackson Laboratory (Bar Harbor, Me.) and were maintained in a light-dark cycle with lights on from 0600-1800 hr. For studies in lean mice, the mice were received at age six weeks and given ad libitum access to control diet (LabDiet 5001 chow, PMI Nutrition, Brentwood, Mo.), and were at least age 11 weeks at the time of study. For studies in the DIO model, the mice were received at age five weeks and given ad libitum access to Bio-Serv F3282 High Fat Diet (Frenchtown, N.J.), and were at least age 16 weeks at the time of study. The experiments were conducted during the light phase of the light-dark cycle. Mice (n=6) are weighed and fasted for a two hour period prior to oral treatment. GK activators are formulated in Gelucire vehicle (Ethanol:Gelucire44/14:PEG400q.s. 4:66:30 v/w/v. For studies in lean mice, the mice were dosed orally with 5.0 μL per gram of body weight with 5 ml/kg×10.0 mg/ml formulation to equal a 50 mg/kg dose. For studies in DIO mice, the mice were dosed orally with 5.0 μL per gram of body weight with […] formulation to equal a 25 mg/kg dose. Immediately prior to dosing, a pre-dose (time zero) blood glucose reading was acquired by snipping off a small portion of the animal's tail (˜1 mm) and collecting 15 μL blood into a heparinized capillary tube for analysis. Following GK activator administration, additional blood glucose readings were taken at 2, 4 and 6 hours post dose from the same tail wound. Results were interpreted by comparing the mean blood glucose values of six vehicle treated mice with six GK activator treated mice over the six hour study duration.
# [2] = biological target: T1, Recombinant human liver GK1 (GST-GK) (Homo sapiens, UniProt P35557); assay: Glucokinase in vitro assay (G6PDH-coupled, NADH at OD340); assay type: biochemical; details: for SC1.5 (concentration of activator that produced a 50% increase in the activity of GK): 25° C., 5 mM D-glucose, 10% DMSO, GST-GK; for glucokinase activation (in words): qualitative statement
# T1 construct: made in house; host or cells: E. coli
# T1 sequence (P35557 1-466 isoform P35557-2): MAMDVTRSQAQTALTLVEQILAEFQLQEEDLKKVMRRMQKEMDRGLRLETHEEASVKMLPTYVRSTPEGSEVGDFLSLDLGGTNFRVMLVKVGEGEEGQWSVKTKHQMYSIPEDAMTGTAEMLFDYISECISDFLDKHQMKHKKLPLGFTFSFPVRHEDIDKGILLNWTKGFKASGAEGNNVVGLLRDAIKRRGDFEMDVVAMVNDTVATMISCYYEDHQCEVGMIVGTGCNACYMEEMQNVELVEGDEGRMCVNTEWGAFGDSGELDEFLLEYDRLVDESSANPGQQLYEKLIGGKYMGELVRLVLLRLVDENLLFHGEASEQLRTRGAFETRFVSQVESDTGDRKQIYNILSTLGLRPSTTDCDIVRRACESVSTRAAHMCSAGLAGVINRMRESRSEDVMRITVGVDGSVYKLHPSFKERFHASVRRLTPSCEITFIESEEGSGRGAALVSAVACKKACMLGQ
# Method: Glucokinase In Vitro Assay Protocol: Glucokinase (GK) was assayed by coupling the production of glucose-6-phosphate to the generation of NADH with glucose-6-phosphate dehydrogenase (G6PDH, 0.75-1 kunits/mg; Boehringer Mannheim, Indianapolis, Ind.) from Leuconostoc mesenteroides as the coupling enzyme (Scheme 2).
# Recombinant human liver GK1 was expressed in E. coli as a glutathione S-transferase fusion protein (GST-GK) [Liang et al, 1995] and was purified by chromatography over a glutathione-Sepharose 4B affinity column using the procedure provided by the manufacturer (Amersham Pharmacia Biotech, Piscataway, N.J.).
# The assay was conducted at 25° C. in a flat bottom 96-well tissue culture plate from Costar (Cambridge, Mass.) with a final incubation volume of 120 μL. The incubation reaction contained the following: 25 mM Hepes buffer (pH 7.1), 25 mM KCl, 5 mM D-glucose, 1 mM ATP, 1.8 mM NAD, 2 mM MgCl2, 1 μM sorbitol-6-phosphate, 1 mM dithiothreitol, test drug or 10% DMSO, 1.8 unit/ml G6PDH, and GK (see below). All organic reagents were >98% pure and were from Boehringer Mannheim with the exceptions of D-glucose and Hepes which were from Sigma Chemical Co, St Louis, Mo. Test compounds were dissolved in DMSO and were added to the incubation reaction minus GST-GK in a volume of 12 μL to yield a final DMSO concentration of 10%. This mix was pre-incubated in the temperature controlled chamber of a SPECTRAmax 250 microplate spectrophotometer (Molecular Devices Corporation, Sunnyvale, Calif.) for 10 minutes to allow temperature equilibrium and then the reaction was started by the addition of 20 μL GST-GK.
# After addition of enzyme, the increase in optical density (OD) at 340 nm was monitored over a 10 minute incubation period as a measure of GK activity. Sufficient GST-GK was added to produce an increase in OD340 of 0.08 to 0.1 units over the 10 minute incubation period in wells containing 10% DMSO but no test compound. Preliminary experiments established that the GK reaction was linear over this period of time even in the presence of activators that produced a 5-fold increase in GK activity. The GK activity in control wells was compared with the activity in wells containing test GK activators, and the concentration of activator that produced a 50% increase in the activity of GK, i.e., the SC1.5, was calculated.
smiles,measurement,setting,value
"Cc1cc([C@@H](CC2CCCC2)C(=O)Nc2ccn(CCCO)n2)ccc1S(C)(=O)=O [Example 82, 3-Cyclopentyl-N-[1-(3-hydroxy-propyl)-1H-pyrazol-3-yl]-2(R)-(4-methanesulfonyl-3-methyl-phenyl)-propionamide]",change in vivo at 25 mg/kg,[1],-38.3%
"COCCCNC(=O)c1ccc(Cn2ccc(NC(=O)[C@H](CC3CCCC3)c3ccc(S(C)(=O)=O)c(Cl)c3)n2)cc1 [Example 47, 4-{3-[2-(R)-(3-Chloro-4-methanesulfonyl-phenyl)-3-cyclopentyl-propionylamino]-pyrazol-1-ylmethyl}-N-(3-methoxy-propyl)-benzamide]",SC1.5 (concentration of activator that produced a 50% increase in the activity of GK),[2],0.03 µM
"CC(C)(C)OC(=O)CCn1ccc(NC(=O)[C@H](CC2CCCC2)c2ccc(S(C)(=O)=O)c(Cl)c2)n1 [Example 8, 3-{3-[2(R)-(3-Chloro-4-methanesulfonyl-phenyl)-3-cyclopentyl-propionylamino]-pyrazol-1-yl}-propionic acid tert-butyl ester]",SC1.5 (concentration of activator that produced a 50% increase in the activity of GK),[2],0.2 µM
"CCS(=O)(=O)n1ccc(NC(=O)[C@H](CC2CCCC2)c2ccc(S(C)(=O)=O)c(Cl)c2)n1 [Example 33, 2(R)-(3-Chloro-4-methanesulfonyl-phenyl)-3-cyclopentyl-N-(1-ethanesulfonyl-1H-pyrazol-3-yl)-propionamide]",change in vivo at 25 mg/kg,[1],-9.8%
"CS(=O)(=O)c1ccc([C@@H](CC2CCCC2)C(=O)Nc2ccn(Cc3ccccc3)n2)cc1Cl [Example 24, N-(1-Benzyl-1H-pyrazol-3-yl)-2(R)-(3-chloro-4-methanesulfonyl-phenyl)-3-cyclopentyl-propionamide]",SC1.5 (concentration of activator that produced a 50% increase in the activity of GK),[2],0.083 µM
"COCCn1ccc(NC(=O)[C@H](CC2CCCC2)c2ccc(S(C)(=O)=O)c(C)c2)n1 [Example 81, 3-Cyclopentyl-2(R)-(4-methanesulfonyl-3-methyl-phenyl)-N-[1-(2-methoxy-ethyl)-1H-pyrazol-3-yl]-propionamide]",change in vivo at 25 mg/kg,[1],-31.4%
"CS(=O)(=O)c1ccc([C@@H](CC2CCCC2)C(=O)Nc2cc[nH]n2)cc1Cl [Example 2, 2(R)-(3-Chloro-4-methanesulfonyl-phenyl)-3-cyclopentyl-N-(1H-pyrazol-3-yl)-propionamide]",SC1.5 (concentration of activator that produced a 50% increase in the activity of GK),[2],0.28 µM
"CS(=O)(=O)c1ccc([C@@H](CC2CCCC2)C(=O)Nc2ccn(C[C@@H](O)CO)n2)cc1Cl [Example 35, 2-(R)-(3-Chloro-4-methanesulfonyl-phenyl)-3-cyclopentyl-N-[1-((R)-2,3-dihydroxy-propyl)-1H-pyrazol-3-yl]-propionamide]",change in vivo at 25 mg/kg,[1],-33.2%
"O=C(Nc1ccn(CCO)n1)[C@H](CC1CCCC1)c1cccc(C(F)(F)F)c1 [Example 79, 3-Cyclopentyl-N-[1-(2-hydroxy-ethyl)-1H-pyrazol-3-yl]-2(R)-(3-trifluoromethyl-phenyl)-propionamide]",SC1.5 (concentration of activator that produced a 50% increase in the activity of GK),[2],1.433 µM
"CC(C)(O)Cn1ccc(NC(=O)[C@H](CC2CCOCC2)c2ccc(Cl)c(Cl)c2)n1 (single isomer, unassigned) [Example 88]",glucokinase activation (in words),[2],active
"CS(=O)(=O)c1ccc([C@@H](CC2CCOCC2)C(=O)Nc2ccn(CCO)n2)cc1Cl (single isomer, unassigned) [Example 76]",SC1.5 (concentration of activator that produced a 50% increase in the activity of GK),[2],5.3 µM
same,glucokinase activation (in words),[2],active
"CCCNC(=O)CCn1ccc(NC(=O)[C@H](CC2CCCC2)c2ccc(S(C)(=O)=O)c(Cl)c2)n1 [Example 11, 2(R)-(3-Chloro-4-methanesulfonyl-phenyl)-3-cyclopentyl-N-[1-(2-propylcarbamoyl-ethyl)-1H-pyrazol-3-yl]-propionamide]",SC1.5 (concentration of activator that produced a 50% increase in the activity of GK),[2],0.45 µM
"CC(C)(O)Cn1ccc(NC(=O)[C@H](CC2CCOCC2)c2ccc(S(C)(=O)=O)c(Cl)c2)n1 [Example 90, 2(R)-(3-Chloro-4-methanesulfonyl-phenyl)-N-[1-(2-hydroxy-2-methyl-propyl)-1H-pyrazol-3-yl]-3-(tetrahydro-pyran-4-yl)-propionamide]",glucokinase activation (in words),[2],active
"CS(=O)(=O)c1ccc([C@@H](CC2CCCC2)C(=O)Nc2ccn(CC(=O)N3CCOCC3)n2)cc1Cl [Example 7, 2(R)-(3-Chloro-4-methanesulfonyl-phenyl)-3-cyclopentyl-N-[1-(2-morpholin-4-yl-2-oxo-ethyl)-1H-pyrazol-3-yl]-propionamide]",change in vivo at 25 mg/kg,[1],-15.3%
"Cc1cc([C@@H](CC2CCCC2)C(=O)Nc2ccn(CCO)n2)ccc1S(C)(=O)=O [Example 78, 3-Cyclopentyl-N-[1-(2-hydroxy-ethyl)-1H-pyrazol-3-yl]-2(R)-(4-methanesulfonyl-3-methyl-phenyl)-propionamide]",change in vivo at 25 mg/kg,[1],-26.7%
"CS(=O)(=O)c1ccc([C@@H](CC2CCCC2)C(=O)Nc2ccn(CC3(O)CC3)n2)cc1Cl [Example 73, 2-(R)-(3-Chloro-4-methanesulfonyl-phenyl)-3-cyclopentyl-N-[1-(1-hydroxy-cyclopropylmethyl)-1H-pyrazol-3-yl]-propionamide]",change in vivo at 25 mg/kg,[1],-48.5%
"COC(=O)c1ccc(Cn2ccc(NC(=O)[C@H](CC3CCCC3)c3ccc(S(C)(=O)=O)c(Cl)c3)n2)cc1 [Example 44, 4-{3-[2-(R)-(3-Chloro-4-methanesulfonyl-phenyl)-3-cyclopentyl-propionylamino]-pyrazol-1-ylmethyl}-benzoic acid methyl ester]",SC1.5 (concentration of activator that produced a 50% increase in the activity of GK),[2],0.061 µM
"COCCn1ccc(NC(=O)[C@H](CC2CCCC2)c2cccc(C(F)(F)F)c2)n1 [Example 84, 3-Cyclopentyl-N-[1-(2-methoxy-ethyl)-1H-pyrazol-3-yl]-2(R)-(3-trifluoromethyl-phenyl)-propionamide]",change in vivo at 25 mg/kg,[1],-24.5%
"CC(C)(O)Cn1ccc(NC(=O)[C@H](CC2COC2)c2ccc(S(C)(=O)=O)c(Cl)c2)n1 (single isomer, unassigned) [Example 92]",glucokinase activation (in words),[2],active
"CC(C)n1ccc(NC(=O)[C@H](CC2CCCC2)c2ccc(S(C)(=O)=O)c(Cl)c2)n1 [Example 56, 2-(R)(3-Chloro-4-methanesulfonyl-phenyl)-3-cyclopentyl-N-(1-isopropyl-1H-pyrazol-3-yl)-propionamide]",SC1.5 (concentration of activator that produced a 50% increase in the activity of GK),[2],0.13 µM
